Measurements taken from patent publication US20220184172A1, “AMPK/CASPASE-6 AXIS CONTROLS LIVER DAMAGE IN NONALCOHOLIC STEATOHEPATITIS” (The Regents of the University of California, priority 2019, published 2022).
*: point of attachment. Cbz = O=C(OCc1ccccc1)*; CH2F = FC*

Tests used:
[1] = system: procaspase-6 cleavage in primary hepatocytes; test: Procaspase-6 cleavage induced by TNFα and CHX in primary hepatocytes (IB); format: cell-based, mice; conditions: 10 μM pretreatment 1 hr, then 30 μg/ml CHX and 50 ng/ml TNFα 2 hrs
Description: FIGS. 5A-5K. AMPK phosphorylates caspase-6 to inhibit its cleavage and activation. FIG. 5A. […] IB analysis of cell lysates. n=3. Mean±SD. *, P<0.05, two-way ANOVA. FIG. 5B. […] Cell lysates were subject to caspase-6 activity assay. Mean±SD. *, P<0.05. FIG. 5C. Caspase-6 Ser^257 locates within AMPK substrate motif. FIG. 5C. discloses SEQ ID NOS 57-63, respectively, in order of appearance. FIG. 5D. In vitro kinase assay using recombinant caspase-6, and recombinant AMPKα1β1γ1 or AMPKα2β1γ1 active kinase. FIG. 5E. Alignment of caspase-6 sequence. FIG. 5E. discloses SEQ ID NOS 64-67, respectively, in order of appearance. FIG. 5F. HEK293T cells overexpressing caspase-6-myc WT, S^257A, S^257D or S^257E mutant were treated with 10 μg/ml CHX and 25 ng/ml TNFα for 2 hrs. IB analysis of cell lysates. FIGS. 5G-5J. C57BL/6J mice were fed CD-HFD for 6 weeks, followed by intraperitoneally injection of 25 mg/kg A-769662 or vehicle daily for 2 weeks while continuous CD-HI-D. Mice were sacrificed 6 hrs after last injection. FIG. 5G. IB analysis of liver lysates. n=5. FIG. 5H. Liver lysates were subject to caspase-6 activity assay. n=7. FIG. 5I. Liver sections stained as indicated therein (aCasp6 and DAPI); in the merged image sections, the different stains correspond to the grayscale shades as indicated in the single stained images to the left. Scale bar=50 μm. […] Quantification of aCasp6 staining per field in FIG. 5I. n=7. […]

[2] = system: cleaved caspase-3 and -7 in primary hepatocytes; test: Caspase cascade after CHX plus TNFα and medium change in primary hepatocytes (IB); format: cell-based, mice; conditions: 25 μM pretreatment 1 hr, CHX and TNFα 2 hrs, medium changed for 4 hrs
Method: FIGS. 16A-16D. Caspase-6 sustain activation of caspase cascade to induce apoptosis. FIG. 16A. HepG2 cells transfected with scrambled RNA or caspase-6 siRNA were treated with vehicle or 300 μg/ml CHX and 50 ng/ml TNFα for 20 hrs. Viability was measured by CCK-8 assay. Data are shown as mean±SD. *, P<0.05, two-way ANOVA. FIG. 16B. HepG2 cells transfected with scrambled RNA or Caspase-6 siRNA were treated with vehicle or 30 μg/ml CHX and 50 ng/ml TNFα for 2 hrs. Medium was changed to remove treatment. Cells were harvested at indicated time points. Cell lysates were subject to IB analysis. FIG. 16C. Isolated primary hepatocytes were pretreated with 25 μM Z-VEID-FMK (VEID) (SEQ ID NO: 71) for 1 hr and treated with 30 μg/ml CHX and 50 ng/ml TNFα for 2 hrs. Medium was changed to remove treatment for 4 hrs. Cell lysates were subject to IB analysis. FIG. 16D. Proposed model for roles of AMPK/caspase-6 axis in the regulation of NASH-associated liver damage. […]
Western blot was performed as previously described(11). […] Supernatants were collected and analyzed with BCA (Thermo Scientific) to quantify protein content. […] Individual proteins were detected with specific antibodies and visualized on film using horseradish peroxidase-conjugated secondary antibodies (Fisher Scientific) and SuperSignal West Pico PLUS Chemilunminescent Substrate (Thermo Scientific).

[3] = system: CD-HFD-fed Flox and LAKO mice; test: Caspase-6 inhibitor Z-VEID-FMK in CD-HFD-fed Flox and LAKO mice; format: in vivo
Description: FIG. 4A. […] Scale bar=50 μm. FIG. 4B. […] FIG. 4F. […] Scale bar=100 μm. FIG. 4G. […] Scale bar=50 μm.
FIG. 6A. […] FIG. 6B. […] FIG. 6C. […] FIG. 6D. […] FIG. 6E. […] FIG. 6F.
FIGS. 14A-14G. […] FIG. 14A. […] Scale bar=100 μm.

[4] = both Flox and LAKO mice, 5 mg/kg i.p. every other day for two weeks

Row | Compound | procaspase-6 cleavage caused by TNFα and CHX [1] | cleaved caspase-3 and -7 [2] | difference in liver damage between Flox and LAKO mice ([3]; 5 mg/kg i.p. every other day for two weeks) | cytosolic cytochrome c (liver fractions, IB) ([3]; both Flox and LAKO mice, 5 mg/kg i.p. every other day for 2 weeks) | liver fibrosis (Sirius red fibrosis area, liver hydroxyproline) [3, 4] | number of apoptotic hepatocytes (TUNEL) [3, 4] | serum ALT activity [3, 4]
1 | COC[C@@H]1CCCN1S(=O)(=O)c1ccc2c(c1)C(=O)C(=O)N2 [caspase-3 and -7 inhibitor] | largely attenuated | – | – | – | – | – | –
2 | Z-VEID-FMK (Cbz-VEID-CH2F) | – | significant decrease | abrogated | decreased | reduced | significantly reduced | decreased
